The values that follow come from patent US5030628A, “N-aryl-azetidinones, their preparation process and their use as elastase inhibitors” (Scientifique, priority 1988, dated 1991).

Broadly, the Ki is the dissociation constant of the complex between target and ligand, obtained from inhibition or displacement. Broadly, the LD50 is the dose at which mortality reaches 50%. A high value points to lower toxicity.

Like-named read-outs stand apart in the source and are kept apart here.

In series [1] the test system is elastase. Nature of the series: Effect on the degradation of elastin by elastase. The note with it: for deactivation of elastase previously incubated with elastin: elastase previously incubated for 30 min. in the presence of an elastin excess (2mg). The class given is biochemical. How it is done:
The effect of compound 5on the degradation of elastin, the natural substrate of elastase in the human organism was tested.

The test system of another series is chymotrypsin. Nature of the series: Test as chymotrypsin inhibitors under identical conditions. The class given is biochemical. The source says: (§1) The properties of the N-aryl-azetidinones obtained in examples 4, 5, 6, 7, 11, 17, 22 and 23 are checked and in particular their deactivation capacity for porcine pancreatic elastase (PPE) and human leucocytic elastase (HLE) using the methods of Kitz and Wilson for HLE in the case of compounds 5a, 5c, 5d, 5e, 5a' and 10a, the method of Kitz and Wilson for PPE in the case of compounds 5a, 5c, 5e and 10a and the method of Hart and O'Brian for PPE in the case of compounds 5a and 5'a. All the kinetic measurements are carried out at 37° C. and at a pH of 8 with a 0.1M tris buffer (PPE) or a 0.1M tris buffer, Brij 0.01%, NaN3 0.02% (HLE) (pH 7.5 for compound 5d).
(§2) On testing compounds 5, 5c, 5'a'under identical conditions as chymotrypsin or trypsin inhibitors, it can be seen that they have no action on these enzymes.

Series [2] deals with porcine pancreatic elastase (PPE) (Sus scrofa, UniProt P00772). Nature of the series: Deactivation of porcine pancreatic elastase (PPE), Kitz and Wilson / Hart and O'Brian kinetics. The class given is biochemical. The settings on record: for Ki / kinact / kinact/KI: 37° C., pH 8, 0.1M tris buffer; for Ki / kinact: Kitz and Wilson (5a, 5c, 5e, 10a), Hart and O'Brian (5a, 5'a); for Ki: read-out: Ki (dissociation constant of the enzyme-inhibitor complex), PPE; for kinact: read-out: ki (first order constant for the formation of the deactivated enzyme), PPE; for kinact/KI: read-out: ki/Ki (apparent second order constant characterizing the deactivation), PPE. Here is the method:
(§3) All the kinetic measurements are carried out at 37° C. and at a pH of 8 with a 0.1M tris buffer (PPE) or a 0.1M tris buffer, Brij 0.01%, NaN3 0.02% (HLE) (pH 7.5 for compound 5d). The method of Hart and O'Brian was published in 1973 in Biochemistry, Vol. 12, pp. 2940-2945 and that of Kitz and Wilson in 1962 in J. Biol. Chem., Vol. 237, pp. 3245-3249. In this way the first order constant ki is determined for the formation of the deactivated enzyme and the dissociation constant Ki of the enzyme-inhibitor complex. The ki: Ki ratio is the apparent second order constant characterizing the deactivation.

Series [3] has as its target T1, human leucocytic elastase (HLE) (Homo sapiens, UniProt P08246).
T1 sequence (P08246 30-267): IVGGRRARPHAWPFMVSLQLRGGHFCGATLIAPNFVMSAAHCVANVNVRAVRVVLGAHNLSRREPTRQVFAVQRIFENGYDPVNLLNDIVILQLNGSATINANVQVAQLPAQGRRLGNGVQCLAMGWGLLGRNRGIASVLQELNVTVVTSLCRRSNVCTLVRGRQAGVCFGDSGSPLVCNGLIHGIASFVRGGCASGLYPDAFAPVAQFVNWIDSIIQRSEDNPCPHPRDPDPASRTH
Nature of the series: Deactivation of human leucocytic elastase (HLE), Kitz and Wilson kinetics. The class given is biochemical. The note with it: for Ki / kinact / kinact/KI: 37° C., Brij 0.01%, NaN3 0.02%, Kitz and Wilson; for Ki: read-out: Ki (dissociation constant of the enzyme-inhibitor complex), HLE; for kinact: read-out: ki (first order constant for the formation of the deactivated enzyme), HLE. How it is done:
as §3

The test system of the next series is trypsin. Nature of the series: Test as trypsin inhibitors under identical conditions. Type of series: biochemical.
From the text: as §1, §2

Series [4] is described as follows: Acute toxicity in male and female mice. The note with it: mouse, in vivo. Here is the method:
The acute toxicity of compound 5a researched on male and female mice exceeds 200 mg/kg.

Series [5] relates to elastase. Kind of series: Properties with respect to elastase (substrate or inhibitor). The class given is biochemical. The source says: Thus, the nature of the R^3 substituent has a significant influence on the properties of the product obtained.
The mark [6] stands for this setting: pH 8, 0.1M tris buffer, read-out: ki/Ki (apparent second order constant characterizing the deactivation), HLE.

porcine pancreatic elastase (PPE), sequence (P00772 27-266): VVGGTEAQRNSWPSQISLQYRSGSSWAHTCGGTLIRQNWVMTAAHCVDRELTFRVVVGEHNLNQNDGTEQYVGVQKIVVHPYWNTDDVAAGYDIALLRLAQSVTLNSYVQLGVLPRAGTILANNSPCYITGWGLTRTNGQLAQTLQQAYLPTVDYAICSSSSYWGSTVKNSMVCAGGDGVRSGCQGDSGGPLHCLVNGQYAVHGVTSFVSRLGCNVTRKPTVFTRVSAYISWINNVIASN

Consider `O=C1N(c2ccccc2CCl)CC1(F)Br` (stereo not shown) [5'a, N-(2-chloromethylphenyl)-3-fluoro-3bromo-2-azetidinone], for which the “deactivation of elastase previously incubated with elastin” value (from here on “deactivation … with elastin”) with elastase [1] is “remain capable of deactivating elastase”. For the same molecule, the action on chymotrypsin result in the series on chymotrypsin is “no action”. In series [2], the “deactivation of PPE (in words)” value is on record as “deactivate”, the Ki came to 8.5 µM, the kinact worked out at 0.048 s⁻¹ and the kinact/KI worked out at 5650 M⁻¹ s⁻¹. Also, the “deactivation of HLE (in words)” value in series [3] was “deactivate”. Further, in series [3] (pH 8, 0.1M tris buffer), the Ki was determined as 1170 µM and the kinact is 0.37 s⁻¹. In addition, the kinact/KI in series [3] (setting [6]) was determined as 316 M⁻¹ s⁻¹. Further, in the series with trypsin, the action on trypsin result is “no action”.
In the case of `O=C1N(c2ccccc2CCl)CC1(F)F` [Compound 5a, N-(2-chloromethylphenyl)-3,3-difluoro-2-azetidinone], the “deactivation … with elastin” value with elastase [1] was “remain capable of deactivating elastase”. In addition, in the series with elastase [1] (elastase previously treated by the compound), the “capacity of treated elastase to degrade elastin” value is “lost its capacity to degrade elastin”. Further, the action on chymotrypsin result in the series on chymotrypsin is listed as “no action”. Besides, in series [4], the LD50 was over 200 mg/kg. In addition, in series [2], the “deactivation of PPE (in words)” value is “deactivate”, the Ki amounted to 30 µM, the kinact came out at 0.031 s⁻¹ and the kinact/KI was determined as 1030 M⁻¹ s⁻¹. Moreover, the “deactivation of HLE (in words)” value in series [3] is listed as “deactivate”. In addition, in series [3] (pH 8, 0.1M tris buffer), the Ki worked out at 16.6 µM and the kinact was 0.005 s⁻¹. For the same molecule, the kinact/KI in series [3] (setting [6]) was 301 M⁻¹ s⁻¹. In the series with trypsin, the action on trypsin entry is “no action”.
Consider `O=C1N(c2ccccc2CF)CC1(F)F` [Compound 5b, N-(2-fluoromethylphenyl)-3,3-difluoro-2-azetidinone], for which, in the series on elastase [5], the elastase inhibition result is “not inhibitors” and the elastase substrate result is reported as “elastase substrates”.
As for `CS(=O)(=O)OCc1ccccc1N1CC(F)(F)C1=O` [Compound 5c, N-(2-methanesulphonyloxymethylphenyl)-3,3-difluoro-2-azetidinone], in the series on elastase [1], the “deactivation … with elastin” value is reported as “remain capable of deactivating elastase”. Also, the action on chymotrypsin result in the series on chymotrypsin was “no action”. Besides, in series [2], the “deactivation of PPE (in words)” value is listed as “deactivate”, the Ki worked out at 48 µM, the kinact was determined as 0.017 s⁻¹ and the kinact/KI is 354 M⁻¹ s⁻¹. Also, the “deactivation of HLE (in words)” value in series [3] is on record as “deactivate”. Further, in series [3] (pH 8, 0.1M tris buffer), the inhibitory constant (Ki) worked out at 500 µM and the kinact was 0.05 s⁻¹. For the same molecule, the kinact/KI in series [3] (setting [6]) came to 100 M⁻¹ s⁻¹. Moreover, the action on trypsin result with trypsin is listed as “no action”.
Turning to `O=C1N(c2ccccc2CBr)CC1(F)F` [Compound 5d, N-(2-bromomethylphenyl)-3,3-difluoro-2-azetidinone], in series [3] (pH 7.5 for compound 5d, 0.1M tris buffer, read-out: ki/Ki (apparent second order constant characterizing the deactivation), HLE, pH 7.5), the kinact/KI worked out at 40 M⁻¹ s⁻¹.
Regarding `O=C1N(c2ccccc2CCl)CC1(Cl)Cl` [Compound 5e, N-(2-chloromethylphenyl)-3,3-di-chloro-2-azetidinone], the Ki in series [2] came out at 590 µM; in series [3] (pH 8, 0.1M tris buffer) it was 500 µM. The kinact turned out to be 0.028 s⁻¹ in series [2] and 0.03 s⁻¹ in series [3] (pH 8, 0.1M tris buffer). Besides, the kinact/KI in series [2] was 47 M⁻¹ s⁻¹; in series [3] (setting [6]), 60 M⁻¹ s⁻¹.
Take `O=C1N(c2ccc(CCl)cc2)CC1(F)F` [Compound 10a, N-(4-chloromethylphenyl)-3,3-difluoro-2-azetidinone]: in series [2], the “deactivation of PPE (in words)” value is listed as “deactivate”, the Ki was found to be 660 µM, the kinact came to 0.075 s⁻¹ and the kinact/KI was found to be 113 M⁻¹ s⁻¹. Further, the “deactivation of HLE (in words)” value in series [3] is reported as “deactivate”. The kinact/KI in series [3] (setting [6]) was about 1.2 M⁻¹ s⁻¹.
As for `O=C1N(c2ccc(CF)cc2)CC1(F)F` [Compound 10b, N-(4-fluoromethylphenyl)-3,3-difluoro-2-azetidinone], in the series on elastase [5], the elastase inhibition result is reported as “not inhibitors” and the elastase substrate entry is recorded as “elastase substrates”.
